Data set [1] concerns U251 glioblastoma cells. As to the kind of experiment: Cell cycle analysis by flow cytometry (DNA histograms). It is filed as cell-based, human. The settings on record: 24 h, 3 μM (FIGS. 69A-69B). For orientation: In flow cytometry, cells or beads pass a laser one at a time.
Data set [2] relates to U251 glioblastoma cells. As to the kind of experiment: Sulforhodamine B (SRB) growth inhibition assay. It is filed as cell-based, human. As to conditions: U251; 48 h SRB; Table 1, Table 2 (FIG. 64), FIG. 63. As to the method: Cells experiencing methuosis initially undergo extreme cytoplasmic vacuolization which can be readily assessed by phase contrast microscopy. As viability is compromised (usually between 24-48 h), the cells detach from the culture surface and lose membrane integrity. […] Although methuosis can occur in a broad spectrum of human tumor cell lines, SAR studies were carried out with U251 glioblastoma cells. Therefore, this cell line was used in the present evaluation.
Total protein in adherent cells was measured by the sulforhodamine B (SRB) colorimetric assay, following standard procedures for anticancer drug screening used by the U.S. National Cancer Institute. […] On the day after plating, four wells were assayed to establish a pre-drug (time-0) baseline. Test compounds were diluted as described above and added to the remaining wells. The medium and compounds were replenished after 24 hr. SRB assays were performed at a 48 h endpoint as described, using a SpectraMax Plus 384 plate reader (Molecular Devices, Sunnyvale, Calif.) to determine absorbance at 515 nm.
Cells were seeded in 96-well plates as described in the methods. After 24 h, each compound was added at the indicated concentrations and SRB assays were performed after an additional 48 h. Each point represents the mean±SD of values from four wells. The dotted line on each graph indicates the average absorbance of four wells sampled at time-0 (i.e., the time that the compounds were added).
The human U251 glioblastoma cell line was obtained from the DCT Tumor Repository (National Cancer Institute, Fredrick, Md.). […] All test compounds were dissolved in DMSO and serially diluted in DMSO so that the desired final drug concentrations could be achieved by making a 1/1000 dilution into the culture medium. One day after plating, four wells were assayed to establish a pre-drug (time-0) baseline. At the same time, fresh medium containing test compounds was added to the remaining wells. Control wells received DMSO alone. SRB assays were performed at a 48 h endpoint. To minimize the impact of potential variations in stability among the compounds, medium with test compound was replenished after the first 24 h.

Data set [3] deals with U251 glioblastoma cells. Nature of the data set: SAR comparison of methuosis induction (vacuolization, MTT viability, colony formation) versus MIPP. It is filed as cell-based, human. The settings on record: 10 μM, morphology 24 h and 48 h, MTT 48 h, colony formation (FIGS. 36, 48). The source says:
Analogs based on the α,β-unsaturated ketone core were designed from Claisen-Schmidt condensations between indole-3-carboxaldehydes and aromatic ketones. Such aldol condensations are known to proceed well employing secondary amines as catalysts. Initially, the orientation of the pyridine nitrogen was investigated.

For data set [4], the target named is T1, porcine tubulin (Sus scrofa, UniProt P02550+P02554).
T1 construct: purchased Cytoskeleton, Inc. BK011P
T1 sequence (P02550 whole entry): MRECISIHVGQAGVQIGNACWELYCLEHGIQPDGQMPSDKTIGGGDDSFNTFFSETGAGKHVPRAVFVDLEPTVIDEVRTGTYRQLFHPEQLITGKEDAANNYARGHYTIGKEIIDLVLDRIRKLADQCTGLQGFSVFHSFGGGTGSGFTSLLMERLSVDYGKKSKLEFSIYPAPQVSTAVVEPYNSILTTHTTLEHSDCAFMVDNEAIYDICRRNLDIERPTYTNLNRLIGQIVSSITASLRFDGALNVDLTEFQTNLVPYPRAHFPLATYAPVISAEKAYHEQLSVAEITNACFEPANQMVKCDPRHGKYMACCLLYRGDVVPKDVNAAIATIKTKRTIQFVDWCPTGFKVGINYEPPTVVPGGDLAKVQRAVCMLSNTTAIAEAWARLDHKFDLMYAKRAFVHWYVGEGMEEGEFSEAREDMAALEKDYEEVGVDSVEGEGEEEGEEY
T1 sequence (P02554 whole entry): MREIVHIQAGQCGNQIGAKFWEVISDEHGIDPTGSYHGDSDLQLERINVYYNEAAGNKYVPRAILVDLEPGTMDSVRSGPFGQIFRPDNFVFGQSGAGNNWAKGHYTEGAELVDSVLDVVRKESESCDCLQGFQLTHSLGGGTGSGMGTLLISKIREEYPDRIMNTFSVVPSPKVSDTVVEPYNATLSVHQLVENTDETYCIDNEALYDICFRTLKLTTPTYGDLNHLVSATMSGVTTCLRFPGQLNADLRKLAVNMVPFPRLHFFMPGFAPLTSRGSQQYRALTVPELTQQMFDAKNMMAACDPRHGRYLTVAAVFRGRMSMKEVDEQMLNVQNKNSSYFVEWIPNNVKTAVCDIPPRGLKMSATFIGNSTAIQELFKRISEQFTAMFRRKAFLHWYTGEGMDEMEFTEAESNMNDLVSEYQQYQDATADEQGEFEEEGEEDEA
Nature of the data set: Cell-free fluorescence-based tubulin polymerization assay. It is filed as biochemical. As to conditions: final concentration 3 μM (FIG. 61).

For data set [5], the system named is U251 glioblastoma cells. Nature of the data set: Effect of filipin, bafilomycin A1 or EHT 1864 on MIPP-induced vacuoles. It is filed as cell-based, human. The settings on record: 10 μM MIPP with 12 μg/ml filipin, 0.1 μM bafilomycin A1 or 25 μM EHT 1864. As to the method:
To inhibit clathrin-independent endocytosis, U251 cells were washed twice with serum-free DMEM, then pretreated for 30 min with DMEM+0.5% BSA in the presence or absence of 12 μg/ml filipin. Following the pretreatment, MIPP was added to the dishes at a final concentration of 10 μM and phase-contrast images were acquired 100 min later. To inhibit the vacuolar-type H^+ ATPase, U251 cells were pretreated for 1 h with 0.1 μM bafilomycin A1 or an equivalent volume of DMSO. At the end of the hour, 10 μM MIPP, or an equivalent volume of DMSO, was added without a medium change. Phase-contrast images of the cells were acquired 1 h after the addition of MIPP. […] The percentage of vacuolated cells in the population was determined by scoring at least 100 cells in multiple phase-contrast photomicrographs for each condition. Cells containing three or more phase-lucent vacuoles with diameters ≧0.5 μm or >10 smaller vacuoles (0.1-0.5 μm) were scored as positive. For comparison, the effect of EHT 1864 on Ras-induced vacuolization was also determined. […] After 24 h, phase-contrast images were taken and the number of vacuolated cells was scored as described above.

The nature of data set [6]: Stability on storage in DMSO (1H NMR). It is filed as physicochemical. The source says: Derivatives substituted with hydroxyl-functionality were synthesized based upon the results obtained in previous SAR studies for 2-substituted indole. Subtle chemical modifications at this position can alter activity, and are sensitive to both steric and electronic properties. […] Previously prepared intermediate ethyl 5-methoxyindole-2-carboxylate (302) was reduced by LAH to 425, which was then protected by acetylating the primary hydroxyl group (426). The acetyl group was then hydrolyzed during the alkaline conditions used to quench the acidic reagents generated during Vilsmeier's step that produce aldehyde 427. […] Alcohol 425 was oxidized to 5-methoxyindole-2-carboxaldehyde (428) by MnO2 in EtOAc heated to reflux. The aldehyde was subjected toWittig conditions using phosphonium ylide (Ph3CHCO2C2H5) to produce the α,β-unsaturated ester 429, which was reduced to 2-hydroxypropylindole 430 using excess LAH. The primary hydroxyl group was protected as the O-acetate (431) under conditions of excess acetic anhydride, TEA and CH3CN. […] As anticipated, the O-acetyl group was hydrolyzed under these conditions.
5-Methoxy-2-hydroxymethylindole-3-carboxaldehyde 427 (75 mg, 0.37 mmol), 4-acetylpyridine (118 mg, […]), and piperidine (82.6 mg, […]) were dissolved in methanol (1 mL) and heated to reflux. The reaction mixture was stirred for 45 min during which the solution became bright orange. The flask was then removed from heat and allowed to stir for 1 h. A precipitate formed which was collected, washed with ice-cold MeOH (5 mL) and dried in a vacuum desiccator for 24 h to yield an orange solid (28 mg, 24%). mp 229-230° C. TLC Rf 0.65 (6% MeOH/DCM), 0.21 (80% EtOAc/hexanes). […] 13C NMR (150 MHz, d6-DMSO) δ 188.2, 155.2, 150.6, 148.0, 145.0, 139.3, 131.0, 126.7, 121.4, 113.8, 113.0, 111.6, 108.3, 103.4, 55.57, 55.32. Elemental analysis calculated for C18H16N2O3.0.033 MeOH: C, 70.00; H, 5.26; N, 9.05. Found: C, 69.61; H, 5.09; N, 8.90. […] When stored in its isolated precipitate form, this compound is stable.

With `COc1ccc2[nH]c(C(=O)[O-])c(/C=C/C(=O)c3ccncc3)c2c1.[Na+]` [402o, sodium trans-3-(5-methoxyindol-2-carboxylate-3-yl)-1-(4-pyridinyl)-2-propen-1-one], in data set [1], the “cell cycle distribution (G2/M, sub-G1/G0)” value is given as “no detectable effect on cell cycle distribution”. For the same molecule, the “growth inhibitory (GI) activity, in words” value in data set [2] is “either markedly attenuated or completely eliminated”.
On to “trans-3-[5-((4-methylbenzoate)methoxy)-1H-Indol-3-yl)]-1-(4-pyridinyl)-2-propen-1-one [compound 26]”, for which the “methuosis-inducing activity compared with compound 2 (MIPP)” value in data set [3] is reported as “neither compound 26 nor compound 27 induced methuosis”.
Consider `COc1ccc2[nH]c(C)c(/C=C/C(=O)c3ccncc3)c2c1` [MOMIPP, trans-3-(5-methoxy-2-methyl-1H-indol-3-yl)-1-(4-pyridinyl)-2-propen-1-one], for which the “inhibition of tubulin polymerization” value in data set [4] was “superimposable with the DMSO control”.
On to `COc1ccc2c(c1)c(/C=C/C(=O)c1ccncc1)cn2C` [compound 20, trans-3-(5-methoxy-1-methyl-Indol-3-yl)-1-(4-pyridinyl)-2-propen-1-one], for which, in data set [3], the “methuosis-inducing activity compared with compound 2 (MIPP)” value is on record as “induced some cytoplasmic vacuolization but had modest effects on cell viability”.
For the molecule `CCOC(=O)c1[nH]c2ccc(OC)cc2c1/C=C/C(=O)c1ccncc1` [compound 125, ethyl trans-3-(5-methoxyindol-2-carboxylate-3-yl)-1-(4-pyridinyl)-2-propen-1-one], the “inhibition of tubulin polymerization” value in data set [4] was “partially inhibited tubulin polymerization”.
For `COc1ccc2[nH]cc(/C=C/C(=O)c3cnccn3)c2c1` [compound 17, trans-3-(5-methoxy-1H-indol-3-yl)-1-(pyrazine)-2-propen-1-one], in data set [3], the “methuosis-inducing activity compared with compound 2 (MIPP)” value is on record as “Loss of activity”.
Turning to `CCCCC[C@@H](O)[C@H]1C(=O)O[C@H](C)[C@@H](O)/C=C/C=C/C=C/C=C/C=C(\C)[C@@H](O)C[C@H](O)C[C@H](O)C[C@H](O)C[C@H](O)C[C@H](O)C[C@@H]1O` [filipin], the “effect on induction of vacuoles by MIPP” value in data set [5] is “failed to show the typical morphological response to MIPP”.
Regarding `COc1ccc2[nH]cc(/C=C/C(=O)c3cccnc3)c2c1` [compound 16, trans-3-(5-methoxy-1H-indol-3-yl)-1-(3-pyridinyl)-2-propen-1-one], the “methuosis-inducing activity compared with compound 2 (MIPP)” value in data set [3] is “Loss of activity”.
As to `O=C(/C=C/c1c[nH]c2ccc(O)cc12)c1ccncc1` [compound 21, trans-3-(5-hydroxy-1H-indol-3-yl)-1-(4-pyridinyl)-2-propen-1-one], the “methuosis-inducing activity compared with compound 2 (MIPP)” value in data set [3] is given as “marked reduction in activity compared to the 5-methoxy compound 19”.
Take `O=C(/C=C/c1c[nH]c2ccccc12)c1cccnc1` [compound 11, trans-3-(1H-indol-3-yl)-1-(3-pyridinyl)-2-propen-1-one]: the “methuosis-inducing activity compared with compound 2 (MIPP)” value in data set [3] is “relatively ineffective at inducing methuosis compared with MIPP”.
Take `O=c1cc(CN2CCOCC2)occ1OCCCCCSc1ccnc2cc(C(F)(F)F)ccc12` [EHT 1864]: the “effect on induction of vacuoles by MIPP” value in data set [5] is given as “no detectable effect on vacuole formation”.
With `COc1ccc2[nH]c(CO)c(C=CC(=O)c3ccncc3)c2c1` [402p, 3-(2-hydroxymethyl-5-methoxy-1H-indole-3-yl)-1-(4-pyridinyl)-2-propen-1-one], the “stability in DMSO, in words” value in data set [6] (storage in DMSO) is “unstable when stored at rt in DMSO for 48 h”. Besides, the degraded in data set [6] (stored in d6-DMSO, after 48 h, 1H NMR) is given as about 50%. For the same molecule, the “stability as isolated precipitate” value in data set [6] (stored in its isolated precipitate form) is listed as “stable”.
With `COc1ccc2[nH]c(C(F)(F)F)c(/C=C/C(=O)c3ccncc3)c2c1` [compound 124, trans-3-(5-methoxyindol-2-trifluoromethyl-3-yl)-1-(4-pyridinyl)-2-propen-1-one], the “inhibition of tubulin polymerization” value in data set [4] is given as “partially inhibited tubulin polymerization”.
Regarding `CO/C1=C\C(C)=C\[C@@H](C)[C@@H](O)[C@@H](C)C/C(C)=C/C=C/[C@H](OC)[C@@H]([C@@H](C)[C@@H](O)[C@H](C)[C@@]2(O)C[C@@H](O)[C@H](C)[C@@H](C(C)C)O2)OC1=O` [Baf-A, bafilomycin A1], the “effect on induction of vacuoles by MIPP” value in data set [5] is listed as “completely abrogated the ability of the cells to generate vacuoles when they were exposed to MIPP”.
“trans-3-[5-((4-carboxyphenyl)-methoxy)-1H-Indol-3-yl)]-1-(4-pyridinyl)-2-propen-1-one [compound 27]”: the “methuosis-inducing activity compared with compound 2 (MIPP)” value in data set [3] is “neither compound 26 nor compound 27 induced methuosis”.
`CN[C@H]1CCc2cc(OC)c(OC)c(OC)c2-c2ccc(OC)c(=O)cc21` [colcemid, reference compound]: in data set [1], the “cell cycle distribution (G2/M, sub-G1/G0)” value is listed as “significantly decreased compared to the DMSO control (p≦0.05)”.
On to `O=C(/C=C/c1c[nH]c2ccccc12)c1ccccn1` [compound 10, trans-3-(1H-indol-3-yl)-1-(2-pyridinyl)-2-propen-1-one], for which, in data set [3], the “methuosis-inducing activity compared with compound 2 (MIPP)” value is “relatively ineffective at inducing methuosis compared with MIPP”.
On to `O=C(/C=C/c1c[nH]c2ccccc12)c1ccccc1` [compound 9, trans-3-(1H-indol-3-yl)-1-phenyl-2-propen-1-one], for which, in data set [3], the “methuosis-inducing activity compared with compound 2 (MIPP)” value is reported as “relatively ineffective at inducing methuosis compared with MIPP”.
On the same count and under the same terms, as for `O=C(/C=C/c1c[nH]c2ccc(O)cc12)c1ccncc1` [compound 15, trans-3-(5-hydroxy-1H-indol-3-yl)-1-(4-pyridinyl)-2-propen-1-one], the entry is “greatly reduced activity of the compound in all of the assays”.

Source of the values: patent US9061994B1, “Materials and methods useful to induce vacuolization, cell death, or a combination thereof” (The University of Toledo, priority 2011, dated 2015).
